Patent US6294526A, “Use of flavone derivatives for induction of β-lactam-sensitivity of MRSA” (priority 1998, dated 2001)
Converted amounts (≈) assume the structure as drawn. Like-named read-outs stand apart in the source and are kept apart here.

Columns and labels:
MSSA = assay: antibacterial activity (MIC) by agar plate dilution method, MSSA strains; format: cell-based, Methicillin-sensitive Staphylooccus aureus
Procedure, shortened: (§1)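 Mueller-Hinton agar plates containing 2-fold serial β-lactam dilutions plus a fixed concentration of test sample; inoculum 10^6 CFU/ml, 37° C. for 20 hours. MIC read as concentration inhibiting growth; MIC80 and MIC50 = 80% and 50% growth inhibition. Flavones dissolved in methanol, others in 0.1 N NaOH.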

MRSA [1] = assay: antibacterial activity (MIC) by agar plate dilution method, MRSA strains; format: cell-based, methicillin-resistant Staphylococcus aureus
Procedure, shortened: as §1

MRSA [2] = assay: antibacterial activity of antibiotics alone and in the presence of apigenin (4 μg/ml), MRSA; format: cell-based, methicillin-resistant Staphylococcus aureus; conditions: apigenin 4 μg/ml or less than its MIC
Method: (§2) The screening of the present invention may be carried out according to the agar plate dilution method designated by the Japan Society of Chemotherapy (Chemotherapy 29(1), 76-79 (1981)). Mueller-Hinton agar base semi-synthetic medium may be used for a plate culture medium for a sensitivity test together with an inoculating bacteria solution which may be prepared by culturing bacteria to be tested at 37° C. for 20 hours diluted with 8.5% by isotonic sodium chloride solution to 10^6 CFU/ml. Diluted β-lactam solutions are prepared by two times serial dilution. 1 ml of the diluted β-lactam solution and 1 ml of a predetermined concentration of a sample to be tested are added to 8 ml of the plate culture medium for a sensitivity test. To the resultant plate culture medium for sensitivity test, the bacteria are inoculated using a microplanter (SAKUMASEISAKUSYO Co.), cultured for 20 hours at 37° C. followed by assessing for a minimum inhibition concentration (MIC).
(D) Then use of 4 μg/ml of apigenin and other antibiotics at the same time was studied. The antibiotics are penicillin , ampicillin, cephalothin, cefoxitin, cefuroxime, cefotaxime, vancomycin, streptomycin, chloramphenicol, kanamycin, erythromycin, nalixic acid and tetracycline.

MRSA and MSSA = assay: antibacterial activity (MIC) by agar plate dilution method, MRSA and MSSA strains together; format: cell-based, Staphylococcus aureus; conditions: MRSA and MSSA, Table 2
Method: as §2, with “(MIC). […]” for “(MIC).”
Antibacterial activity is determined for flavones including flavone, flavonol, flavanone, isoflavone, catechin and calchone, as follows:
Flavones were dissolved in methanol and the others were dissolved in 0.1 N NaOH. A method for determination of antibacterial activity is, as described above, an agar plate dilution method designated by the Japan Society of Chemotherapy (Chemotherapy 29(1), 76-79 (1981)) to determine MIC value. MIC80 is a concentration at which a strain is prohibited to proliferate by 80% and MIC50 is a concentration at which a strain is prohibited to proliferate by 50%.

O=c1cc(-c2ccc(O)cc2)oc2cc(O)cc(O)c12 [Apigenin, apigenin]
MIC (MSSA; MSSA strain No. 21): > 250 µg/mL
MIC (MSSA; MSSA strain No. 22): > 250 µg/mL
MIC (MSSA; MSSA strain No. 24): 3.9 µg/mL (≈ 14.4 µM)
MIC (MSSA; MSSA strain No. 24, listed as SB-1): 31.3 µg/mL (≈ 116 µM)
MIC (MSSA; MSSA strain No. 25): 3.9 µg/mL (≈ 14.4 µM)
MIC (MSSA; MSSA strain No. 27): 15.6 µg/mL (≈ 57.7 µM)
MIC (MSSA; MSSA strain No. 27, listed as SB-1): 31.3 µg/mL (≈ 116 µM)
MIC50 (MSSA; Staphylococcus aureus, 20 h, MSSA (7 strains), read-out: MIC50): 15.6 µg/mL (≈ 57.7 µM)
MIC (MSSA; Staphylococcus aureus, MSSA, 20 h, MSSA strain No. 21, read-out: MIC): 250 µg/mL (≈ 925 µM)
MIC (MSSA; Staphylococcus aureus, MSSA, 20 h, MSSA strain No. 22, read-out: MIC): 250 µg/mL (≈ 925 µM)
MIC (MSSA; Staphylococcus aureus, MSSA, 20 h, MSSA strain No. 23, read-out: MIC): 15.6 µg/mL (≈ 57.7 µM)
MIC (MSSA; Staphylococcus aureus, MSSA, 20 h, MSSA strain No. 25, read-out: MIC): 7.8 µg/mL (≈ 28.9 µM)
MIC (MSSA; Staphylococcus aureus, MSSA, 20 h, MSSA strain No. 26, read-out: MIC): 15.6 µg/mL (≈ 57.7 µM)
MIC (MRSA [1]; MRSA strain No. 1): 7.8 µg/mL (≈ 28.9 µM)
MIC (MRSA [1]; MRSA strain No. 2): 3.9 µg/mL (≈ 14.4 µM)
MIC (MRSA [1]; MRSA strain No. 3): 7.8 µg/mL (≈ 28.9 µM)
MIC (MRSA [1]; MRSA strain No. 4): 7.8 µg/mL (≈ 28.9 µM)
MIC (MRSA [1]; MRSA strain No. 5): 3.9 µg/mL (≈ 14.4 µM)
MIC (MRSA [1]; MRSA strain No. 6): 3.9 µg/mL (≈ 14.4 µM)
MIC (MRSA [1]; MRSA strain No. 8): 3.9 µg/mL (≈ 14.4 µM)
MIC (MRSA [1]; MRSA strain No. 9): 3.9 µg/mL (≈ 14.4 µM)
MIC (MRSA [1]; MRSA strain No. 9, listed as SB-1): 15.6 µg/mL (≈ 57.7 µM)
MIC (MRSA [1]; MRSA strain No. 13): 7.8 µg/mL (≈ 28.9 µM)
MIC (MRSA [1]; MRSA strain No. 13, listed as SB-1): 31.3 µg/mL (≈ 116 µM)
MIC (MRSA [1]; MRSA strain No. 14): 7.8 µg/mL (≈ 28.9 µM)
MIC (MRSA [1]; MRSA strain No. 14, listed as SB-1): 31.3 µg/mL (≈ 116 µM)
MIC (MRSA [1]; MRSA strain No. 15): 7.8 µg/mL (≈ 28.9 µM)
MIC (MRSA [1]; MRSA strain No. 16): 7.8 µg/mL (≈ 28.9 µM)
MIC (MRSA [1]; MRSA strain No. 17): 3.9 µg/mL (≈ 14.4 µM)
MIC50 (MRSA [1]; Staphylococcus aureus, 20 h, MRSA (20 strains), read-out: MIC50): 7.8 µg/mL (≈ 28.9 µM)
MIC (MRSA [1]; Staphylococcus aureus, MRSA, 20 h, MRSA strain No. 1, read-out: MIC): 15.6 µg/mL (≈ 57.7 µM)
MIC (MRSA [1]; Staphylococcus aureus, MRSA, 20 h, MRSA strain No. 2, read-out: MIC): 7.8 µg/mL (≈ 28.9 µM)
MIC (MRSA [1]; Staphylococcus aureus, MRSA, 20 h, MRSA strain No. 3, read-out: MIC): 15.6 µg/mL (≈ 57.7 µM)
MIC (MRSA [1]; Staphylococcus aureus, MRSA, 20 h, MRSA strain No. 4, read-out: MIC): 15.6 µg/mL (≈ 57.7 µM)
MIC (MRSA [1]; Staphylococcus aureus, MRSA, 20 h, MRSA strain No. 5, read-out: MIC): 7.8 µg/mL (≈ 28.9 µM)
MIC (MRSA [1]; Staphylococcus aureus, MRSA, 20 h, MRSA strain No. 6, read-out: MIC): 7.8 µg/mL (≈ 28.9 µM)
MIC (MRSA [1]; Staphylococcus aureus, MRSA, 20 h, MRSA strain No. 7, read-out: MIC): 3.9 µg/mL (≈ 14.4 µM)
MIC (MRSA [1]; Staphylococcus aureus, MRSA, 20 h, MRSA strain No. 8, read-out: MIC): 7.8 µg/mL (≈ 28.9 µM)
MIC (MRSA [1]; Staphylococcus aureus, MRSA, 20 h, MRSA strain No. 10, read-out: MIC): 15.6 µg/mL (≈ 57.7 µM)
MIC (MRSA [1]; Staphylococcus aureus, MRSA, 20 h, MRSA strain No. 11, read-out: MIC): > 250 µg/mL
MIC (MRSA [1]; Staphylococcus aureus, MRSA, 20 h, MRSA strain No. 12, read-out: MIC): > 250 µg/mL
MIC (MRSA [1]; Staphylococcus aureus, MRSA, 20 h, MRSA strain No. 15, read-out: MIC): 15.6 µg/mL (≈ 57.7 µM)
MIC (MRSA [1]; Staphylococcus aureus, MRSA, 20 h, MRSA strain No. 16, read-out: MIC): 15.6 µg/mL (≈ 57.7 µM)
MIC (MRSA [1]; Staphylococcus aureus, MRSA, 20 h, MRSA strain No. 17, read-out: MIC): 7.8 µg/mL (≈ 28.9 µM)
MIC (MRSA [1]; Staphylococcus aureus, MRSA, 20 h, MRSA strain No. 18, read-out: MIC): > 250 µg/mL
MIC (MRSA [1]; Staphylococcus aureus, MRSA, 20 h, MRSA strain No. 19, read-out: MIC): > 250 µg/mL
MIC (MRSA [1]; Staphylococcus aureus, MRSA, 20 h, MRSA strain No. 20, read-out: MIC): 31.3 µg/mL (≈ 116 µM)
inhibition of β-lactam resistant MRSA / improvement of antibacterial effect with apigenin (in words) (MRSA [2]): could improve antibacterial effect of methicillin on MRSA
antibacterial activity (in words) (MRSA and MSSA): showed antibacterial activity
